# Reference: article PMC9782315, “Site-Specific Albumin-Selective Ligation to Human Serum Albumin under Physiological Conditions” (Bioconjugate Chemistry, 2022)
# Read-outs that look alike come from different tables or passages of the source. Where a SMILES comes first, the peptide text is derived from it. [ ]: non-standard residue; d: D form. The star is where a group is joined. Biotin = O=C1N[C@H]2[C@H](CS[C@H]2CCCCC(=O)*)N1; Myristoyl = CCCCCCCCCCCCCC(=O)*; Aad = N[C@@H](CCCC(=O)O)C(=O)O; AEEA = NCCOCCOCC(=O)O
# Key:
# HSA [1] = target: T1, HSA (Homo sapiens, UniProt P02768); experiment: Neutravidin pull-down assay for conjugation yield of biotinylated HSA; type: biochemical
# T1 construct: purchased Sigma Aldrich
# T1 sequence (P02768 25-609): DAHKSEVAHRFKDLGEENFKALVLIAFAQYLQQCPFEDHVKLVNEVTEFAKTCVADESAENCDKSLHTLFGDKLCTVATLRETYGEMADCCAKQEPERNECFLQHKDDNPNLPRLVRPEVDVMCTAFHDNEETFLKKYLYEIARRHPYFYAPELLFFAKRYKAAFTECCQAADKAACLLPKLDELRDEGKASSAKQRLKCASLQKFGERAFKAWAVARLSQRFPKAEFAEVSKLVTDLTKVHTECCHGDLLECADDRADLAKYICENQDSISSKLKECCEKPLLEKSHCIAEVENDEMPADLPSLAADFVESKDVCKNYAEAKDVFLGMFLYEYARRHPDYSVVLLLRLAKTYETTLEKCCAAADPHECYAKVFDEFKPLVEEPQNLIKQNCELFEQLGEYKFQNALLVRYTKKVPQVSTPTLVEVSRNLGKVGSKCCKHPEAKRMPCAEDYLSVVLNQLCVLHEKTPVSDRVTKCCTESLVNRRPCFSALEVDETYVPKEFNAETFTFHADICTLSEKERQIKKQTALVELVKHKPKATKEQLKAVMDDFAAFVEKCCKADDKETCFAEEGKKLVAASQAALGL
# Experimental: Zeba spin desalting columns were pre-equilibrated by PBS buffer 3 times on
# centrifugation (1500 x g, 1 minute). After conjugation, HSA-LYL conjugates passed
# through the equilibrated Zeba desalting column. The flow through was collected and
# further condensed by a 500 μL ultracentrifugation tube (MW cutoff = 3000) at 1 5000
# rpm at 4 °C for 15 minutes. The resulting condensed solution was immediately
# reconstituted by PBS (pH = 7.2), and the condensation process was repeated 2 times to
# further remove biotinylated peptidomimetics. After that, the condensed HSA conjugate
# (typically 20-50 μL) was diluted by 100 μL PBS for Neutravidin pull-down assay.
# Using neutravidin-immobilized agarose, the NeutrAvidin pull-down assay intercepted
# biotinylated proteins through biotin-avidin interaction. Therefore, the conjugation yield
# can be determined by measuring the difference caused by NeutrAvidin pull -down.
# The yield of conjugation is calculated based on the concentration difference of HSA
# before and after passing through Neutrvidin agarose, which is calculated by following
# 𝑌𝑖𝑒𝑙𝑑 = 𝐶𝐻𝑆𝐴 𝑆𝑡𝑜𝑐𝑘−𝐶𝐻𝑆𝐴 𝐹𝑙𝑜𝑤−𝑡ℎ𝑟𝑜𝑢𝑔ℎ × 100% (1) […]
# concentration was determined by Bicinchoninic acid (BCA) assay. […]
# coulometric reactions were performed at 68°C for 30 minutes and the UV absorbance at
# 562 nm was measured by plate reader. […]
# fluorescence intensity of corresponding Western blots.
# was calculated without background subtraction .
# HSA [2] = target: T1, HSA; experiment: Bio-layer interferometry (BLI) assay of non-covalent biotinylated RAEs with HSA; type: binding; settings: human serum albumin (HSA)
# Experimental: S5. BLI Assay for Biotinylated Non-covalent Peptidomimetics.
# Figure S6 Chemical Structure of Non-covalent Biotinylated RAEs (NCB-LYL1-4, NCB-LYLG) Biotinylated Non-covalent RAEs was synthesized by replacing acrylamide with acetyl group to study the intrinsic binding affinity of peptidomimetics using bio-layer interferometry (BLI) assay. For BLI assay, 1 μM non-covalent biotinylated RAEs (Figure S6) solution was prepared by kinetic buffer as the bait. As the fish, HSA solution at various concentration prepared by serial dilution using kinetic buffer, and the last well of dilution was filled with kinetic buffer as the reference well. Using 96-well plate, the biosensors were equilibrated in kinetic buffer for 60s. Then biosensors dipped ligands […]
# wells, kinetic buffer wells, HSA well, kinetic buffer wells again for 120s, 60s, 480s, 960s as loading, baseline, association, and dissociation step, respectively. The data was subtracted by reference wells and processed by ForteBio Data Analysis software to derive the Kd value using steady-state approximation by 1:1 model (Figure S7-S8)
# Figure S7 Bio-layered Interferometry for NCB-LYL1-4 and NCB -LYL -G
# (1 picture or pasted object on this page, not shown here)
# [3] = BLI, 1 μM non-covalent biotinylated RAE as bait, HSA serial dilution in kinetic buffer, association 480 s, dissociation 960 s, steady-state, 1:1 model, read-out: Kd
Structure (SMILES),Kd at 480 s (HSA [2]; [3]) [nM],also measured
"O=C1N[C@H]2[C@H](CS[C@H]2CCCCC(=O)Oc2ccc([N+](=O)[O-])cc2)N1 [NBE, 4-Nitrophenyl biotin ester]",,"Conjugation Yield (HSA [1]; 10 μM HSA, 50 μM RAE or NBE, PBS pH 7.2, room temperature, 1 h, BCA read-out, 3 replications, no background subtraction): 99.0%; uptake by immobilized neutravidin agarose (conjugation yield, text) (HSA [1]; initial condition, physiological pH 7.2, 1 h): ~100%"
CCCCCCCCCCCCCC(=O)N[C@H](CCC(=O)O)C(=O)N[C@@H](CC(=O)O)C(=O)N[C@@H](CCCCNC(C)=O)C(=O)N[C@H](CO)C(=O)N[C@@H](CCCC(=O)O)C(=O)NCCOCCOCC(=O)NCCOCCOCC(=O)N[C@@H](CCCCNC(=O)CCCC[C@@H]1SC[C@@H]2NC(=O)N[C@@H]21)C(N)=O [NCB-LYL1] (Myristoyl-[dE]DK(Ac)[dS][Aad][AEEA][AEEA]K(Biotin)-NH2),1400,
CCCCCCCCCCCCCC(=O)N[C@H](CCC(=O)O)C(=O)N[C@@H](CCCC(=O)O)C(=O)N[C@@H](CCCCNC(C)=O)C(=O)N[C@@H](CC(=O)O)C(=O)N[C@@H](Cc1ccc(O)cc1)C(=O)NCCOCCOCC(=O)NCCOCCOCC(=O)N[C@@H](CCCCNC(=O)CCCC[C@@H]1SC[C@@H]2NC(=O)N[C@@H]21)C(N)=O [NCB-LYL2] (Myristoyl-[dE][Aad]K(Ac)DY[AEEA][AEEA]K(Biotin)-NH2),1000,
CCCCCCCCCCCCCC(=O)N[C@H](CCC(=O)O)C(=O)N[C@@H](CCCCNC(C)=O)C(=O)N[C@@H](CCCC(=O)O)C(=O)N[C@H](CCC(=O)O)C(=O)NCCOCCOCC(=O)NCCOCCOCC(=O)N[C@@H](CCCCNC(=O)CCCC[C@@H]1SC[C@@H]2NC(=O)N[C@@H]21)C(N)=O [NCB-LYL3] (Myristoyl-[dE]K(Ac)[Aad][dE][AEEA][AEEA]K(Biotin)-NH2),2400,
CCCCCCCCCCCCCC(=O)N[C@H](C)C(=O)N[C@@H](CCCC(=O)O)C(=O)N[C@@H](CCCCNC(C)=O)C(=O)N[C@H](CCC(=O)O)C(=O)N[C@H](CO)C(=O)NCCOCCOCC(=O)NCCOCCOCC(=O)N[C@@H](CCCCNC(=O)CCCC[C@@H]1SC[C@@H]2NC(=O)N[C@@H]21)C(N)=O [NCB-LYL4] (Myristoyl-[dA][Aad]K(Ac)[dE][dS][AEEA][AEEA]K(Biotin)-NH2),2800,
CCCCCCCCCCCCCC(=O)NCC(=O)NCC(=O)N[C@@H](CCCCNC(C)=O)C(=O)NCC(=O)NCC(=O)NCCOCCOCC(=O)NCCOCCOCC(=O)N[C@@H](CCCCNC(=O)CCCC[C@@H]1SC[C@@H]2NC(=O)N[C@@H]21)C(N)=O [NCB-LYLG] (Myristoyl-GGK(Ac)GG[AEEA][AEEA]K(Biotin)-NH2),,"Kd at 480 s (HSA [2]; BLI assay, non-covalent (acetyl instead of acrylamide) biotinylated RAEs, read-out: Kd / binding affinity toward HSA): 12000 nM"
